From US10618914B2 (UNIVERSITY OF PITTSBURGH—OF THE COMMONWEALTH SYSTEM OF …, priority 2015, dated 2020)
“And” between values parts separate entries of the source, which are not always exact repeats. Equal values may be shown once. Read-outs that look alike come from different tables or passages of the source.

Experiments:
[1] = test system: Cal33 cells; assay: Cal33 growth inhibition; assay type: cell-based
[2] = test system: STAT3; assay: HCS STAT3 assay; assay type: cell-based
[3] = Table 2, read-out: Cal33 (IC50)
[4] = Table 2, read-out: STAT3 (IC50)
[5] = Homo sapiens, CAL-33, Table 1, read-out: Growth Inhibition Cal33 (mean IC50)

| SMILES | IC50 [1, 3] | IC50 [2, 4] [µM] | IC50 [1, 5] [µM] | IC50 ([2]; Table 1, read-out: STAT3 (mean IC50)) [µM] | IC50 ([1]; Homo sapiens, CAL-33, Table 2, read-out: Cal33 (IC50)) [µM] |
| --- | --- | --- | --- | --- | --- |
| CCN(CC)c1ccc(C2=Nn3c(nnc3-c3cc(-c4ccccc4)n(C)n3)SC2C)cc1 (centres unmarked) [compound 10555] | 10.5 µM | 3.7 | – | – | – |
| CC1Sc2nnc(-c3cc(-c4ccccc4)n[nH]3)n2N=C1c1ccc(N2CCOCC2)cc1 (centres unmarked) [compound 10522] | 9.6 µM | 39.3 | – | – | – |
| CC1Sc2nnc(-c3cc(-c4ccccc4)n[nH]3)n2N=C1c1ccc(C(F)(F)F)cc1 (centres unmarked) [compound 10478] | 50 µM | 35.9 | – | – | – |
| COc1ccc(C2=Nn3c(nnc3-c3cc(-c4ccc(Cl)cc4)n[nH]3)SC2C)cc1 (racemic) [compound 10205] | 2.1 µM and 2 µM | – | – | – | – |
| CC1Sc2nnc(-c3cc(-c4ccc(Cl)cc4)n[nH]3)n2N=C1c1ccccc1 (racemic) [compound 10174] | 35.5 µM | 5.7 | – | – | – |
| COc1ccc(C2=Nn3c(nnc3-c3cc(-c4ccccc4)n(C)n3)SC2C)cc1 (centres unmarked) [compound 10542] | 15.1 µM | 6.5 | – | – | – |
| CC1Sc2nnc(-c3[nH]nc4c3CCC4)n2N=C1c1ccc(Br)cc1 (centres unmarked) [compound 10476] | 0.79 µM | 18.6 | – | – | – |
| COC(=O)CC1Sc2nnc(-c3cc(-c4ccccc4)n[nH]3)n2N=C1c1ccc(OC)cc1 (centres unmarked) [compound 10427] | 34.5 µM | 11.6 | – | – | – |
| COc1ccc(C2=Nn3c(nnc3-c3[nH]nc4c3CCCC4)SC2)cc1 [UPCDC10073] | – | – | 0.2 | 17 | – |
| COc1ccc(C2=Nn3c(nnc3-c3[nH]nc4c3CCC4)SC2)cc1 | – | – | 0.15 | – | – |
| COc1cccc(C2=Nn3c(nnc3-c3cc(-c4ccccc4)n[nH]3)SC2C)c1 (centres unmarked) [compound 10475] | 12.4 µM | 7.1 | – | – | – |
| CC1Sc2nnc(-c3cc(-c4ccccc4)n(C)n3)n2N=C1c1ccc(Cl)c(Cl)c1 (centres unmarked) [compound 10543] | 35 µM | 4.8 | – | – | – |
| CC1Sc2nnc(-c3cc(-c4ccccc4)n[nH]3)n2N=C1c1ccc(OC(F)(F)F)cc1 (centres unmarked) [compound 10474] | 50 µM | 24.2 | – | – | – |
| CC1Sc2nnc(-c3nn(Cc4ccc(OC(F)(F)F)cc4)c4c3CCC4)n2N=C1c1ccc(Cl)c(Cl)c1 (centres unmarked) [compound 10477] | 34.3 µM | 31 | – | – | – |
| COc1ccc(C2=Nn3c(nnc3-c3nn(C(C)=O)c4c3CCC4)SC2C)cc1 (centres unmarked) [compound 10421] | 0.26 µM | 37.1 | – | – | – |
| COc1ccc(C2=Nn3c(nnc3-c3[nH]nc4c3CCC4)SC2C)cc1OC (centres unmarked) [compound 10494] | 5.7 µM | 25.1 | – | – | – |

| SMILES | IC50 [1, 3] | IC50 [2, 4] [µM] | IC50 [1, 5] [µM] | IC50 ([2]; Table 1, read-out: STAT3 (mean IC50)) [µM] | IC50 ([1]; Homo sapiens, CAL-33, Table 2, read-out: Cal33 (IC50)) [µM] |
| --- | --- | --- | --- | --- | --- |
| Cc1ccc(C2=Nn3c(nnc3-c3cc(-c4ccccc4)n[nH]3)SC2C)cc1 (centres unmarked) [compound 10473] | 12 µM | 14.1 | – | – | – |
| COc1ccc(C2=Nn3c(-c4cc(-c5ccccc5)n[nH]4)nnc3[S+]([O-])C2C)cc1 (centres unmarked) [compound 10534] | – | 26.2 | – | – | 50 |
| COc1ccc(C2=Nn3c(nnc3-c3cc(-c4ccccc4)nn3C(C)=O)SC2C)cc1 (centres unmarked) [compound 10480] | 30.4 µM | 6.3 | – | – | – |
| CC(C)C1Sc2nnc(-c3cc(-c4ccccc4)n(C)n3)n2N=C1c1ccc(Cl)c(Cl)c1 (centres unmarked) [compound 10556] | 48.6 µM | 27.3 | – | – | – |
| COc1ccc(C2=Nn3c(nnc3-c3nn(CC(=O)OC(C)(C)C)c4c3CCC4)SC2C)cc1 (centres unmarked) [compound 10438] | 49.6 µM | 34.1 | – | – | – |
| CCOC(=O)CC1Sc2nnc(-c3cc(-c4ccccc4)n[nH]3)n2N=C1c1ccc(OC)cc1 (centres unmarked) [compound 10448] | 13.6 µM | 15.5 | – | – | – |
| COc1ccc(C2=Nn3c(nnc3-c3cc(-c4ccc(F)cc4)n[nH]3)SC2C)cc1 (racemic) [compound 10204] | 33 µM | 4.2 | – | – | – |
| CC1Sc2nnc(-c3[nH]nc4c3CCCC4)n2N=C1c1ccccc1 (racemic) [compound 10175] | 40.2 µM | 22.4 | – | – | – |
| CC(C)CC1Sc2nnc(-c3[nH]nc4c3CCC4)n2N=C1c1ccc(Cl)c(Cl)c1 (racemic) [compound 10304] | 3.5 µM | 27.1 | – | – | – |
| O=C(CC1Sc2nnc(-c3cc(-c4ccccc4)n[nH]3)n2N=C1c1ccccc1)N1CCCC1 (centres unmarked) [compound 10410] | 43.5 µM | 37.3 | – | – | – |
| COc1ccc(C2=Nn3c(nnc3-c3[nH]nc4c3CN(Cc3ccccc3)C4)SC2C)cc1 (centres unmarked) [compound 10512] | 4.6 µM | 27 | – | – | – |
| COc1ccc(C2=Nn3c(nnc3-c3nn(C)c4c3CCC4)SC2C)cc1 (centres unmarked) [compound 10420] | 0.38 µM | 46.1 | – | – | – |
| CC1(C)Sc2nnc(-c3cc(-c4ccccc4)n[nH]3)n2N=C1c1ccccc1 [compound 10264] | 50 µM | 45.6 | – | – | – |
| O=C(CC1Sc2nnc(-c3cc(-c4ccc(Cl)cc4)n[nH]3)n2N=C1c1ccccc1)N1CCCC1 (centres unmarked) [compound 10411] | 21.6 µM | 11.1 | – | – | – |
| CC(C)C1Sc2nnc(-c3cc(-c4ccccc4)n(C)n3)n2N=C1c1ccccc1 (centres unmarked) [compound 10562] | 50 µM | 12.2 | – | – | – |
| CC1Sc2nnc(-c3cc(-c4ccc(F)cc4)n[nH]3)n2N=C1c1ccccc1 (racemic) [compound 10135] | 33.4 µM | 3.8 | – | – | – |
